What was measured:
CDK9 = CDK9 (Homo sapiens, UniProt P50750); conditions: cited from earlier work
[1] = tested on: CAL-78, OUMS-27, SW1353, H-EMC-SS, SW620, HS-SY-II; experiment: Cytotoxicity screens INBRX-109 + CDK9 or MCL-1 inhibitor, summary over the cell lines; type: cell-based; conditions: combination with INBRX-109
From the text: Data was graphed in GraphPad Prism 9.

H-EMC-SS = experiment: Cell viability (CellTiter-Glo) cytotoxicity assay, INBRX-109 x CDK9 or MCL-1 inhibitor matrix, 48 h, chondrosarcoma line
Experimental: (§1) On day 1, cells were seeded as follows. Monolayer cultures of each cell line (chondrosarcoma: CAL-78, OUMS-27, SW1353, and H-EMC-SS; colorectal cancer: SW620; and synovial sarcoma: HS-SY-II) were harvested for compound screening. Culture medium was aspirated, and the cells were washed once with PBS. Accutase was added and flasks were incubated at 37° C. until cells became detached. An equal volume of complete medium was added to quench the Accutase, and the cells were then pipetted up and down several times to generate a homogenous single cell suspension. The density and viability of cells was determined by Trypan Blue using a TC20 Automated Cell Counter. Experimental cells were resuspended to a concentration of 0.17×10^6/mL in Eagle's Minimum Essential Medium (EMEM)/10% FBS/Anti-Anti media (complete EMEM) and seeded in the inner wells of 384-well luminescence plates at 15 mL/well (2,500/well final). Each cell line was plated in duplicate on separate plates. Outer wells were filled with 50 mL PBS, then plates were incubated in a humidified temperature-controlled 37° C. tissue culture incubator at 5% CO2 overnight for 16 hours.
(§2) These test articles were added, in duplicate, to each cell line. The plates were then centrifuged at 400×g for 1 minute, then incubated in a 37° C. humidity-controlled tissue culture incubator (5% CO2) for 48 hours.
(§3) After incubation with the test articles, viability measurements were taken, briefly. Plates were equilibrated to room temperature for 10 minutes, then 25 μL of CellTiter-Glo 2.0® was added to each well. Plates were spun for 1 minute at 400×g, then covered and incubated in the dark for 10 minutes at room temperature. Any visible bubbles were removed with 100% ethanol vapor, then luminescence (RLU) was read on the Spectra Max M5e plate reader, using the 384-well opaque plate setting and SoftMax® Pro v5.4 software with an integration time of 50 milliseconds. To determine the effect of test articles on cell viability, raw RLU values were exported to Excel and percent survival was calculated as a percentage of vehicle control (0.5% DMSO in EMEM), where the vehicle control is set at 100%. Data was graphed in GraphPad Prism 9.

HS-SY-II = experiment: Cell viability (CellTiter-Glo) cytotoxicity assay, INBRX-109 x CDK9 or MCL-1 inhibitor matrix, 48 h, synovial sarcoma line
Experimental: as §1, §2, §3

SW1353 = experiment: Cell viability (CellTiter-Glo) cytotoxicity assay, INBRX-109 x CDK9 or MCL-1 inhibitor matrix, 48 h, chondrosarcoma line
Experimental: as §1, §2, §3

CAL-78 = experiment: as above
Experimental: as §1, §2, §3

SW620 = experiment: Cell viability (CellTiter-Glo) cytotoxicity assay, INBRX-109 x CDK9 or MCL-1 inhibitor matrix, 48 h, colorectal cancer line
Experimental: as §1, §2, §3

OUMS-27 = experiment: Cell viability (CellTiter-Glo) cytotoxicity assay, INBRX-109 x CDK9 or MCL-1 inhibitor matrix, 48 h, chondrosarcoma line
Experimental: as §1, §2, §3

[2] = concentrations of 125 nM or higher

Sequence of CDK9 (P50750 whole entry): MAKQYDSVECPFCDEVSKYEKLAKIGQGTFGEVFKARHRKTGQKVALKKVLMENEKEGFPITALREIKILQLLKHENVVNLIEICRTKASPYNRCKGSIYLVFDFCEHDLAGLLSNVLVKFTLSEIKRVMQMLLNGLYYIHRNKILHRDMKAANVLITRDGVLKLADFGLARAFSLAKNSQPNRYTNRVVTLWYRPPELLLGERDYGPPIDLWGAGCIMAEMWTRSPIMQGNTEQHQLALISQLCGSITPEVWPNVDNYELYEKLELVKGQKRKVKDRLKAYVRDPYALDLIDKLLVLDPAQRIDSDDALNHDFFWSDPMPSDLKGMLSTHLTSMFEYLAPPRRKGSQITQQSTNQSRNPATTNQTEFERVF
Sequence of CDK9 (O60563 whole entry partner): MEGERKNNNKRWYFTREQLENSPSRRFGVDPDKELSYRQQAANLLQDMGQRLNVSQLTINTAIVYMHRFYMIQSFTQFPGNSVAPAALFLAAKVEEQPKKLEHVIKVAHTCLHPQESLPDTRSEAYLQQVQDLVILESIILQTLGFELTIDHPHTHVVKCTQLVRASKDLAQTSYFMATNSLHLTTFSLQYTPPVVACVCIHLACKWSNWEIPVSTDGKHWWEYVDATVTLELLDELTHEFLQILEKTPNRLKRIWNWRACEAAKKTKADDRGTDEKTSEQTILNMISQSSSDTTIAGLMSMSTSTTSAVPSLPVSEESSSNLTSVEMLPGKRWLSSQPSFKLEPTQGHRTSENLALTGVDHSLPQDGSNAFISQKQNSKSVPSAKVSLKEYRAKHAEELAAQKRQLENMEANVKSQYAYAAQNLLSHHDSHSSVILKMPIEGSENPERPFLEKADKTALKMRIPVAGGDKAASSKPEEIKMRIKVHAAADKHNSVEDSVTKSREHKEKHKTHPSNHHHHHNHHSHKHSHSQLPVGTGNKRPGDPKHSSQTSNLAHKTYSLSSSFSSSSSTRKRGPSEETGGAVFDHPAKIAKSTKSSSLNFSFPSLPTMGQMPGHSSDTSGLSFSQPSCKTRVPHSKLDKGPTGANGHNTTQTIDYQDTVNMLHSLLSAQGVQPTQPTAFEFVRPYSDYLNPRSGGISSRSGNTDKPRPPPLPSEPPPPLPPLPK

Structure (SMILES): N[C@H]1CC[C@H](Nc2cc(-c3cccc(NCc4cccc(F)c4)n3)c(Cl)cn2)CC1 [i-CDK9]
- selectivity for CDK9 over other CDKs (CDK9): 600 fold

Structure (SMILES): CN1CC[C@H](c2c(O)cc(O)c3c(=O)cc(-c4ccccc4Cl)oc23)[C@H](O)C1 [Flavopiridol]
- cell killing by the combination [1]: increased cell killing on nearly every cancer cell line tested
- combination effect (shift in the killing curves of INBRX-109) [1, 2]: synergistic effect
- EC50 (H-EMC-SS; flavopiridol + 1 nM INBRX-109): 53.9 nM
- Max Cytotox (H-EMC-SS; flavopiridol + 1 nM INBRX-109): 99%
- EC50 (H-EMC-SS; flavopiridol only): 114 nM
- Max Cytotox at 125 nM (H-EMC-SS; flavopiridol only): 21.9%
- EC50 (HS-SY-II; flavopiridol + 1 nM INBRX-109): 103 nM
- Max Cytotox (HS-SY-II; flavopiridol + 1 nM INBRX-109): 95.1%
- EC50 (HS-SY-II; flavopiridol only): 108 nM
- Max Cytotox at 125 nM (HS-SY-II; flavopiridol only): 55.8%
- EC50 (SW1353; flavopiridol + 1 nM INBRX-109): 133 nM
- Max Cytotox (SW1353; flavopiridol + 1 nM INBRX-109): 88.3%
- EC50 (SW1353; flavopiridol only): 202 nM
- Max Cytotox at 125 nM (SW1353; flavopiridol only): 21.7%
- EC50 (CAL-78; flavopiridol + 1 nM INBRX-109): 115 nM
- EC50 (CAL-78; flavopiridol only): 146 nM
- Max Cytotox at 125 nM (CAL-78; flavopiridol only): 10.9%
- EC50 (SW620; flavopiridol + 1 nM INBRX-109): 50.2 nM
- Max Cytotox (SW620; flavopiridol + 1 nM INBRX-109): 98.7%
- EC50 (SW620; flavopiridol only): Unstable
- Max Cytotox at 125 nM (SW620; flavopiridol only): 21.7%
- EC50 (OUMS-27; flavopiridol + 1 nM INBRX-109): 118 nM
- Max Cytotox (OUMS-27; flavopiridol + 1 nM INBRX-109): 87.8%
- EC50 (OUMS-27; flavopiridol only): 109 nM
- Max Cytotox at 125 nM (OUMS-27; flavopiridol only): 24.0%

Structure (SMILES): COc1cc(F)ccc1-c1cc(Nc2cc(CS(C)(=N)=O)ccn2)ncc1F (centres unmarked) [Enitociclib]
- cell killing by the combination [1]: increased cell killing on nearly every cancer cell line tested
- combination effect (shift in the killing curves of INBRX-109) [1, 2]: synergistic effect
- EC50 (H-EMC-SS; enitociclib + 1 nM INBRX-109): 114 nM
- Max Cytotox (H-EMC-SS; enitociclib + 1 nM INBRX-109): 99.2%
- EC50 (H-EMC-SS; enitociclib only): 124 nM
- Max Cytotox at 125 nM (H-EMC-SS; enitociclib only): 15.8%
- EC50 (HS-SY-II; enitociclib + 1 nM INBRX-109): 89.1 nM
- Max Cytotox (HS-SY-II; enitociclib + 1 nM INBRX-109): 94%
- EC50 (HS-SY-II; enitociclib only): 74 nM
- Max Cytotox at 125 nM (HS-SY-II; enitociclib only): 73.2%
- EC50 (SW1353; enitociclib + 1 nM INBRX-109): 103 nM
- Max Cytotox (SW1353; enitociclib + 1 nM INBRX-109): 64.6%
- EC50 (SW1353; enitociclib only): 102 nM
- Max Cytotox at 125 nM (SW1353; enitociclib only): 28.0%
- EC50 (CAL-78; enitociclib + 1 nM INBRX-109): 108 nM
- Max Cytotox (CAL-78; enitociclib + 1 nM INBRX-109): 90.8%
- EC50 (CAL-78; enitociclib only): 144 nM
- Max Cytotox at 125 nM (CAL-78; enitociclib only): 10.9%
- EC50 (SW620; enitociclib + 1 nM INBRX-109): 39.3 nM
- Max Cytotox (SW620; enitociclib + 1 nM INBRX-109): 97.6%
- EC50 (SW620; enitociclib only): 25.8 nM
- Max Cytotox at 125 nM (SW620; enitociclib only): 27.3%
- EC50 (OUMS-27; enitociclib + 1 nM INBRX-109): 90.4 nM
- Max Cytotox (OUMS-27; enitociclib + 1 nM INBRX-109): 81%
- EC50 (OUMS-27; enitociclib only): 51 nM
- Max Cytotox at 125 nM (OUMS-27; enitociclib only): 25.6%

Structure (SMILES): COC[C@@H](C)N[C@H]1CC[C@H](Nc2cc(-c3cccc(NCC4(C#N)CCOCC4)n3)c(Cl)cn2)CC1 [NVP-2]
- cell killing by the combination [1]: increased cell killing on nearly every cancer cell line tested
- combination effect (shift in the killing curves of INBRX-109) ([1]; concentrations higher than 25 nM): synergistic effect
- EC50 (H-EMC-SS; NVP-2 + 1 nM INBRX-109): 24.5 nM
- Max Cytotox (H-EMC-SS; NVP-2 + 1 nM INBRX-109): 98.7%
- EC50 (H-EMC-SS; NVP-2 only): 23.5 nM
- Max Cytotox at 125 nM (H-EMC-SS; NVP-2 only): 46.4%
- EC50 (SW1353; NVP-2 + 1 nM INBRX-109): 22.3 nM
- Max Cytotox (SW1353; NVP-2 + 1 nM INBRX-109): 79.5%
- EC50 (SW1353; NVP-2 only): 30.6 nM
- Max Cytotox at 125 nM (SW1353; NVP-2 only): 52.8%
- EC50 (CAL-78; NVP-2 + 1 nM INBRX-109): 26.4 nM
- Max Cytotox (CAL-78; NVP-2 + 1 nM INBRX-109): 92.4%
- EC50 (CAL-78; NVP-2 only): 23.2 nM
- Max Cytotox at 125 nM (CAL-78; NVP-2 only): 42.2%
- EC50 (SW620; NVP-2 + 1 nM INBRX-109): 4.91 nM
- Max Cytotox (SW620; NVP-2 + 1 nM INBRX-109): 98.7%
- EC50 (SW620; NVP-2 only): 12.6 nM
- Max Cytotox at 125 nM (SW620; NVP-2 only): 39.5%
- EC50 (OUMS-27; NVP-2 + 1 nM INBRX-109): 16.3 nM
- Max Cytotox (OUMS-27; NVP-2 + 1 nM INBRX-109): 88.5%
- EC50 (OUMS-27; NVP-2 only): 9 nM
- Max Cytotox at 125 nM (OUMS-27; NVP-2 only): 20.4%
